Reference: article PMC6028453, “BrlR from Pseudomonas aeruginosa is a receptor for both cyclic di-GMP and pyocyanin” (Nature Communications, 2018)

Key:
BrlR = molecular target: T1, BrlR (Pseudomonas aeruginosa, UniProt Q9HUT5); test: FP competition experiment, wild-type BrlR; type: binding; details: 320 μM BrlR, 1 nM F-c-di-GMP, 760 μM c-di-GMP added
T1 construct: His6-SUMO (N, cleaved yes); made in house; host or cells: E. coli BL21 DE3
Protocol: Supplementary Figure 4: Fluorescence polarization competition experiment. Wt BrlR was added to a final concentration of 320 μM in the reaction buffer containing 1 nM F-c-di-GMP, and the binding […]
curve was recorded. […] After the addition of
760 μM c-di-GMP (indicated with an arrow in the figure), an apparent competition with the fluoresceinated c-di-GMP could be observed by the remarkable decrease in millipolarization units.
(1 picture or pasted object on this page, not shown here)

BrlR mutant Y40A = molecular target: T2, BrlR mutant Y40A (Pseudomonas aeruginosa, UniProt Q9HUT5, Y40A); test: FP binding assay, BrlR Y40A
T2 construct: His6-SUMO (N, cleaved yes); made in house; host or cells: E. coli BL21 DE3
T2 sequence (Q9HUT5 whole entry Y40A): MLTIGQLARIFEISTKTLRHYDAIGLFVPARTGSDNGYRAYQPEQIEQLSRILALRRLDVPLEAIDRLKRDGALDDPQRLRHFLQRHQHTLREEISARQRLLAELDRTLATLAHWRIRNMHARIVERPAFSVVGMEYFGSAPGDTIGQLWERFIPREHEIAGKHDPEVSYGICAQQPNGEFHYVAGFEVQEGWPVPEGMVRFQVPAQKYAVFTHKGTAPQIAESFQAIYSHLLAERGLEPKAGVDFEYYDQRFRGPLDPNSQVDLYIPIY
Protocol: F-c-di-GMP and F-c-di-AMP both contain a fluorophore at one of the 2′-ribose hydroxyls of c-di-GMP and c-di-AMP, respectively (Fig. 2f). To measure the binding of c-di-GMP and c-di-AMP to BrlR variants, 1 nM F-c-di-GMP or F-c-di-AMP was incubated with increasing amounts of indicated BrlR WT, BrlR mutation, or BrlR-C in reaction buffer (25 mM HEPES, 100 mM NaCl, pH 7.5) at 25 °C for 20 min. 1 nM fluorescein was incubated with BrlR WT in the same reaction buffer at 25 °C. FP measurements were conducted on a Synergy 4 Microplate Reader (BioTek) at 25 °C. All experiments were performed in triplicate. The curves were fitted to deduce binding affinities by GraphPad Prism 5.
BrlR–c-di-GMPs interactions in two separate c-di-GMP binding sites
In the first binding site, c-di-GMP is half accommodated by the antiparallel β-sheet and two residues (M1 and D35). In detail, the backbone amide protons of the first M1 residue form a hydrogen bond (H-bond) with the phosphate oxygen atom of c-di-GMP, and the side chain of R31 forms two H-bonds with the Gua1 base. The residue D35 also forms an H-bond with the Gua1 base. The aromatic ring of Y40 interacts with the Gua1 base through a hydrophobic π-π interaction. In addition, the hydroxyl group of the Y270 side chain from another subunit interacts with the phosphate 2 of c-di-GMP via an H-bond (Fig. 2d). […]

brlR transcription = test: qRT-PCR of brlR transcript; type: cell-based, P. aeruginosa PAO1; details: elevated c-di-GMP by diguanylate cyclase PA4843 in PAO1
Protocol: PAO1 WT strains were grown under different conditions. For c-di-GMP effects, overexpression of PA4843 in PAO1 (PAO1/pHERD20T-PA4843) relative to WT cells (PAO1/ pHERD20T) was determined. When P. aeruginosa strains entered mid-log phase, arabinose was added to induce gene expression. To test pyocyanin’s effect, a P. aeruginosa PAO1 WT strain cells with high pyocyanin production was determined relative to a ΔphzA1-G1/phzA2-G2 strain not producing phenazine and a ΔphzMSH strain not producing pyocyanin.
Total RNA was extracted using a MiniBEST Universal RNA Extraction Kit (TaKaRa) and cDNA synthesis was performed using a PrimeScript RT reagent Kit (TaKaRa). Primers for RT-PCR listed in Supplementary Table 1 were designed using the program PrimerExpress (Applied Biosystems). The RT-PCR reactions were performed on a CFX96 Real-Time PCR Detection System (Bio-Rad) using SYBR Premix Ex Taq™ (TaKaRa). Expression of the target genes was normalized to the expression of 16 S RNA. The relative transcript abundance was calculated according to the 2^−ΔΔCt method. Five biological replicates were performed per sample. The data were analyzed with a one-tailed t-test (***P ≤ 0.001).

BrlR R86A DNA binding = molecular target: T3, BrlR R86A DNA binding (Pseudomonas aeruginosa, UniProt Q9HUT5, R86A); test: EMSA, BrlR R86A; type: biochemical
T3 construct: His6-SUMO (N, cleaved yes); made in house; host or cells: E. coli BL21 DE3
T3 sequence (Q9HUT5 whole entry R86A): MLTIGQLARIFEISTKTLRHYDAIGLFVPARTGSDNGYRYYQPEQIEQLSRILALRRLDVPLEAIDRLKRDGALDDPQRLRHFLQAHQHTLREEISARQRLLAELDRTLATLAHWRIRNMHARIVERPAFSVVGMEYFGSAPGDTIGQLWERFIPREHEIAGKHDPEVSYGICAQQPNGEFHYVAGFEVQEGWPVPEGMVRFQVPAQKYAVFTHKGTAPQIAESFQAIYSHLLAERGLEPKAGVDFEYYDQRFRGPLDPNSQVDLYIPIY
Protocol: (§1) A 6-carboxy-fluorescein (FAM)-labeled 36-bp brlR promoter DNA (PbrlR) or 80-bp mexA/mexE promoter DNA (PmexA/PmexE) probes (~0.375 pmol), BrlR protein and varying amounts of inducers were incubated in binding buffer (10 mM Tris HCl [pH 7.4], 50 mM KCl, 1 mM DTT, […] and 5 ng/mL poly [dI-dC]) for 60 min at 25 °C. Finally, glycerol was added to a concentration of 6.5%. The samples were subjected to a 5% polyacrylamide gel electrophoresis and run in 0.5 × Tris-borate-EDTA buffer at 80 V for 1 h at room temperature. Imaging and data analyses were performed using a Typhoon Scanner (GE Healthcare) and Imagequant software. The probes used are listed in Supplementary Table 1.

BrlR-DNA binding (PbrlR) = molecular target: T4, BrlR-DNA binding (PbrlR) (Pseudomonas aeruginosa, UniProt Q9HUT5); test: EMSA, wild-type BrlR with PbrlR DNA; type: biochemical
T4 construct: His6-SUMO (N, cleaved yes); made in house; host or cells: E. coli BL21 DE3
T4 sequence (Q9HUT5 whole entry): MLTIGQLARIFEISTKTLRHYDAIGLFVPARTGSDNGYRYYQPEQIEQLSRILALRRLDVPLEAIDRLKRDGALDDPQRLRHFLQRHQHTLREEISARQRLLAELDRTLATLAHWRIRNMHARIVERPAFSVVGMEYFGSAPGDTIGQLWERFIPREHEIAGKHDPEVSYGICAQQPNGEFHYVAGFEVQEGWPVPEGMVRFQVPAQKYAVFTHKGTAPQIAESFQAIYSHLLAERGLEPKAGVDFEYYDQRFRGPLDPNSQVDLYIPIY
Protocol: as §1

T1 sequence (Q9HUT5 whole entry): as above

With `Nc1nc2c(ncn2[C@@H]2O[C@@H]3COP(=O)(O)O[C@H]4[C@@H](O)[C@H](n5cnc6c(=O)[nH]c(N)nc65)O[C@@H]4COP(=O)(O)O[C@H]3[C@H]2O)c(=O)[nH]1` [c-di-GMP, cyclic diguanylate monophosphate] the “competition with F-c-di-GMP binding to BrlR” value (BrlR) was “outcompeted specifically”, the Kd (BrlR mutant Y40A) was 34.2 ± 2.6 µM and the “transcriptional level of brlR, pHERD20T-PA4843 strain vs pHERD20T-empty strain” value (brlR transcription) was 4.5 ± 1.3 fold. For the same compound, the “DNA bound in the presence vs absence of c-di-GMP” value (BrlR R86A DNA binding) was ~ 1.5 fold, the “effect of c-di-GMP and pyocyanin together on BrlR-DNA binding” value (BrlR-DNA binding (PbrlR); PbrlR, c-di-GMP, pyocyanin, and both) was “cooperatively enhance” and the “BrlR-DNA complex in the presence vs absence of c-di-GMP” value (BrlR-DNA binding (PbrlR); wild-type BrlR, band densitometry) was 5.5 fold. For the same compound, the “effect on BrlR-PbrlR DNA binding (in words)” value (BrlR-DNA binding (PbrlR); wild-type BrlR, increasing concentrations of compound) was “significantly promoted”.
